According to patent US20030224420A1, “Method for isolating and measuring proliferation of long-term label retaining cells and stem cells” (priority 2002, published 2003):
“Also recorded” adds a separate entry of the source.

What was measured:
[1] = Body weight and toxicity during BrdU administration (p.o. drinking water vs i.p.); format: in vivo
[2] = tested on: colon epithelial cells (CECs); assay: Flow cytometric (FACS) analysis of BrdU labeled colon epithelial cell nuclei; format: in vivo, Fisher 344 rats; details: for BrdU+ cells in proliferative fraction of the crypt: FACS
Description: For BrdU labeling, rats received BrdU in drinking water at 1 mg/ml. Glucose (1 g/100 ml) was added to the water to mask the taste of BrdU. BrdU was added to the water, then the bottle was shaken. Next, glucose was added and the bottle was vigorously shaken to dissolve BrdU completely. It took approximately 1-2 min for BrdU to dissolve completely. It was important to prepare BrdU drinking water freshly everyday during the feeding period.
Colon was excised fresh at necropsy. Feces were removed with 0.015M NaCl solution with 0.001M dithiothreitol (DTT) and the colon was placed in cold, 1.6% Joklik's modified medium (JMMEM, Gibco Invitrogen, Grand Island, N.Y.) for 120 minutes. CECs from different proliferative fractions of the crypt were separated sequentially using the nonenzymatic, mechanical dissociation method described elsewhere. CEC from different crypt fractions (basal proliferative fraction and top mature fraction) were collected by incubating the colon sac filled with PBS buffers containing chelating agents. The tissue was shaken in a 37° C. water bath for 20 minutes, then 15 minutes and 30 minutes for collecting CECs from top, middle and the basal fractions, respectively. The middle fraction (transitional fraction) was discarded. The collected CECs were then separated from intraepithelial lymphocytes and other contaminants by applying to a discontinuous Percoll (Amersham Biosciences, Uppsala, Sweden) gradient centrifugation, with 45% Percoll overlaid on 75% Percoll. CEC from the proliferative fraction (the base of the crypts) were collected and used for FACS and GC/MS analysis since LRCs are known to be located at this region. The CECs from the mature (top) fractions from the rats that were given ^2H2O for 2-3 weeks were used as fully turned over CECs to represent the maximal ^2H labeling in DNA. A part of the distal and proximal colon was used for immunohistochemistry.
The staining protocol was as described elsewhere, and was modified for CECs. The CECs were separated from colon (as described above) and filtered through a Falcon tube 2235. The cells were then fixed with ice cold 95% ethanol while vortexing, centrifugated at 800 g for 3 minutes and washed in cold PBS (without Ca^++ and Mg^++) once. […] Two million cells were washed of ethanol in 150 ul of PBS, incubated in 1% NP 40 (Sigma) solution in the refrigerator for 30 minutes, centrifugated at 10,000 g, and the pellet was collected and washed in PBS. Two million CEC nuclei were added to each well in 96 well plates (round bottom), then 150 ul of 1% paraformaldehyde with 0.01% Tween 20 in PBS was added for additional fixation and permeabilization. The cells were kept at room temperature for 30 minutes then at 4° C. for 15 minutes, prior to centrifugation at 800 g for 3 minutes and washing in cold PBS once. Next, 150 μl of DNase I (50 kunits/ml) was added at room temperature for 15 minutes to allow denaturation of nuclear DNA. […] For negative controls, an equal concentration of mouse IgG1 FITC isotype control antibodies (Becton Dickinson, Cat 349041) were used to correct for background fluorescence. […]
At the end of each BrdU labeling period (0 week delabed), we analyzed the percent of BrdU positive cells from the proliferative fraction of the crypt (where LRCs have previously been located). This maximal BrdU labeled sample was analyzed to confirm the efficacy of BrdU administration. […]

CEC = CEC proliferation rates of BrdU treated vs control rats (preliminary study); format: in vivo; details: data not shown
From the text: There have been reports on the inhibitory effects of BrdU on cell proliferation and differentiation in vitro and in vivo at various concentrations and in various cell types. Since BrdU toxicity is strain and cell type specific, we cannot completely assess possible toxic effects from BrdU on the proliferation of LRCs.

[3] = Body water ^2H2O enrichment by GC/MS during ^2H2O administration; format: in vivo, Fisher 344 rats; details: for Body Water ^2H2O Enrichment: 8% ^2H2O drinking water
Description: Rats were primed with 99.9% ^2H2O i.p. at the start of the ^2H2O labeling period. The volume injected was 4% of the estimated body water volume. Then they were maintained on 8% ^2H2O enriched drinking water ad libitum for up to 8 weeks (19).
Body water enrichments were measured by a gas chromatographic/mass spectrometer (GC/MS) technique that we have described previously.
Body water ^2H2O enrichments were measured from plasma obtained from rats sacrificed at each time point. Achievement of plateau ^2H enrichments in body water during long-term ^2H2O administration is desirable because it signifies a stable DNA synthesis precursor enrichment for labeling of DNA. Body water enrichment from rats that were on ^2H2O for 2-8 weeks reached expected values and remained at those plateau levels (3.9-4.3%) throughout the study (FIG. 3).

SMILES | Toxicity or weight loss ([1]; BrdU 1 mg/ml in drinking water, long-term) | Toxicity (body weight) ([1]; BrdU i.p., repeated injections once a day for 8 days) | BrdU+ cells in proliferative fraction, mean±SD over labeling periods ([2]; 0 week delabeled, mean of 2, 4 and 8 weeks BrdU p.o.) | BrdU positive cells after 4 and 8 weeks of BrdU administration ([2]; 4 and 8 weeks BrdU p.o.) | BrdU+ cells in proliferative fraction of the crypt ([2]; after 4 weeks BrdU p.o., 0 week delabeled) | BrdU+ cells in proliferative fraction of the crypt ([2]; after 8 weeks BrdU p.o., 0 week delabeled) | BrdU incorporation / fluorescence of CEC, i.p. vs p.o. ([2]; repeated i.p. injection once a day for 8 days compared with p.o. drinking water) | CEC proliferation rates vs control rats (CEC) | Body Water ^2H2O Enrichment ([3]; Week 1 of ^2H2O administration) | Body Water ^2H2O Enrichment ([3]; Week 3 of ^2H2O administration) | Body Water ^2H2O Enrichment ([3]; Week 4 of ^2H2O administration) | Delabeling time for ^2H2O to be almost completely washed out of the body water pool ([3]; after stopping ^2H2O intake, found previously in applicant's lab) | Body water enrichment, plateau levels ([3]; rats on ^2H2O for 2-8 weeks, measured from plasma) | Body water enrichment maintained throughout the study ([3]; throughout the study)
O=c1[nH]c(=O)n([C@H]2C[C@H](O)[C@@H](CO)O2)cc1Br [BrdU, bromodeoxyuridine] | did not cause any detectable toxicity or weight loss | caused toxicities; also recorded: caused weight loss; also recorded: toxicities were observed | 77±12% | 65-77% | 65% | 77% | more BrdU incorporation and thus higher fluorescence | same CEC proliferation rates as the control rats | – | – | – | – | – | –
[2H]O[2H] [^2H2O, deuterated water] | – | – | – | – | – | – | – | – | 4.29 | 3.93 | 4.30 | less than 1 week | 3.9-4.3% | 4.2±0.2 % of total body water
